Molecular target: Complement factor D (Homo sapiens, UniProt P00746)
Assay: Human Factor D Assay
Experimental: Human Factor D (purified from human serum, Complement Technology, Inc.) at 80 nM final concentration is incubated with test compound at various concentrations for 5 min at room temperature in 50 mM Tris, 1M NaCl, pH 7.5. A synthetic substrate Z-L-Lys-SBzl and DTNB (Ellman's reagent) are added to final concentrations of 100 μM each. […] IC50 values are calculated by nonlinear regression of complement Factor D reaction rates as a function of test compound concentration.

Complement factor D, sequence (P00746 whole entry): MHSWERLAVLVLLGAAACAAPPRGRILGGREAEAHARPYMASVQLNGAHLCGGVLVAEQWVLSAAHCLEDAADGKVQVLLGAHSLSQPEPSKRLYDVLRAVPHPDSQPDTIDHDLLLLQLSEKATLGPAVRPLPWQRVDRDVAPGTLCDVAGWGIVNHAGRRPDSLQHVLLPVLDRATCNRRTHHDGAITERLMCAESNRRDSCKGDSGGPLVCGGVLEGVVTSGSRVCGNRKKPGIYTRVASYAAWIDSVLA

IC50: in the range around 5.5 µM
Structure (SMILES): CC(=O)c1nn(CC(=O)N2C[C@H](F)C[C@H]2C(=O)NC2CCN(C(=O)c3cn[nH]c3)CC2)c2ccc(-c3cnc(C)nc3)cc12 [US11407738, Example 00330]

— BindingDB's records for patent US11407738 (Achillion Pharmaceuticals, 2022)
